According to the supplement of paper PMC10307832:

Columns and labels:
Assay in all cases: relative viability (nuclei count vs DMSO), 5 days (fraction); higher = more cells survive
Dactolisib + Pictilisib = compound: Cn1c(=O)n(-c2ccc(C(C)(C)C#N)cc2)c2c3cc(-c4cnc5ccccc5c4)ccc3ncc21 [Dactolisib] + CS(=O)(=O)N1CCN(Cc2cc3nc(-c4cccc5[nH]ncc45)nc(N4CCOCC4)c3s2)CC1 [Pictilisib] (partner 1 µM)
Summary of the method: (§1)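 Lung cancer cell lines in 1536-well plates got either a single drug or a fixed anchor-drug dose together with five library-drug doses (not always all listed) in √10 steps, by pin tool, on the day after seeding. Nuclei were counted after 5 days, and relative viability is the treated-to-vehicle ratio of nuclei counts. Values are medians of duplicate plates.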

AZ505 + Trametinib = compound: C1CCC(CC1)N(CCNCCC2=C3C(=C(C=C2)O)NC(=O)CO3)C(=O)CCNCCC4=CC(=C(C=C4)Cl)Cl [AZ505] + CC(=O)Nc1cccc(-n2c(=O)n(C3CC3)c(=O)c3c(Nc4ccc(I)cc4F)n(C)c(=O)c(C)c32)c1 [Trametinib] (partner 0.02 µM)
Summary of the method: as §1

Dactolisib + Olaparib = compound: Cn1c(=O)n(-c2ccc(C(C)(C)C#N)cc2)c2c3cc(-c4cnc5ccccc5c4)ccc3ncc21 [Dactolisib] + O=C(c1cc(Cc2n[nH]c(=O)c3ccccc23)ccc1F)N1CCN(C(=O)C2CC2)CC1 [Olaparib] (partner 8 µM)
Summary of the method: as §1

AZ505 + Luminespib = compound: C1CCC(CC1)N(CCNCCC2=C3C(=C(C=C2)O)NC(=O)CO3)C(=O)CCNCCC4=CC(=C(C=C4)Cl)Cl [AZ505] + CCNC(=O)c1noc(-c2cc(C(C)C)c(O)cc2O)c1-c1ccc(CN2CCOCC2)cc1 [Luminespib] (partner 0.01 µM)
Summary of the method: as §1

Cell Line	relative viability (Dactolisib + Pictilisib; first compound 0.002 µM)	relative viability (Dactolisib + Pictilisib; first compound 0.006325 µM)	relative viability (Dactolisib + Pictilisib; first compound 0.02 µM)	relative viability (Dactolisib + Pictilisib; first compound 0.06325 µM)	relative viability (Dactolisib + Pictilisib; first compound 0.2 µM)	relative viability (AZ505 + Trametinib; first compound 0.08 µM)	relative viability (AZ505 + Trametinib; first compound 0.253 µM)	relative viability (AZ505 + Trametinib; first compound 0.8 µM)	relative viability (AZ505 + Trametinib; first compound 2.53 µM)	relative viability (AZ505 + Trametinib; first compound 8 µM)	relative viability (Dactolisib + Olaparib; first compound 0.002 µM)	relative viability (Dactolisib + Olaparib; first compound 0.006325 µM)	relative viability (Dactolisib + Olaparib; first compound 0.02 µM)	relative viability (Dactolisib + Olaparib; first compound 0.06325 µM)	relative viability (Dactolisib + Olaparib; first compound 0.2 µM)	relative viability (AZ505 + Luminespib; first compound 0.08 µM)	relative viability (AZ505 + Luminespib; first compound 0.253 µM)	relative viability (AZ505 + Luminespib; first compound 0.8 µM)	relative viability (AZ505 + Luminespib; first compound 2.53 µM)	relative viability (AZ505 + Luminespib; first compound 8 µM)
NCI-H1651	0.654	0.514	0.449	0.328	0.265	0.814	0.863	0.834	0.817	0.829	0.187	0.173	0.178	0.208	0.215	0.78	0.881	0.736	0.841	0.944
NCI-H1666	0.417	0.405	0.438	0.383	0.366	0.878	0.873	0.83	0.838	0.781	0.955	0.683	0.874	0.713	0.747	0.974	0.952	0.931	0.987	0.997
NCI-H1734	0.468	0.395	0.39	0.26	0.216	0.65	0.647	0.652	0.675	0.691	0.644	0.548	0.471	0.405	0.266	0.234	0.197	0.221	0.232	0.161
NCI-H1755	0.47	0.471	0.451	0.368	0.274	0.728	0.785	0.749	0.741	0.746	0.987	0.886	0.86	0.733	0.476	0.505	0.589	0.448	0.594	0.444
NCI-H1792	0.323	0.246	0.218	0.0901	0.0962	0.426	0.426	0.482	0.422	0.435	0.427	0.319	0.394	0.135	0.101	0.359	–	0.452	0.478	0.404
NCI-H1793	0.311	0.315	0.175	0.211	0.203	0.382	0.372	0.416	0.428	0.434	0.784	0.299	0.254	0.18	0.169	0.199	0.173	0.179	–	0.167
NCI-H1915	1.01	0.952	0.944	0.513	0.483	0.294	0.303	0.236	0.266	0.301	0.254	0.253	0.293	0.264	0.246	0.769	0.928	0.75	0.783	0.986
NCI-H1944	0.36	0.334	0.305	0.233	0.253	0.377	0.391	0.414	0.444	0.386	0.548	0.386	0.397	0.265	0.21	0.827	0.715	0.77	0.707	0.738
NCI-H1975	0.26	0.27	0.232	0.2	0.175	0.351	0.315	0.377	0.356	0.332	0.778	0.817	0.632	0.302	0.269	0.198	0.197	0.197	0.162	0.2
NCI-H1993	0.99	0.85	0.804	0.705	0.834	0.463	0.533	0.45	0.575	0.469	1.29	0.865	0.827	0.432	0.37	0.842	0.795	0.716	0.911	0.861
NCI-H2009	0.961	0.853	0.727	0.498	0.322	0.247	0.262	0.233	0.276	0.287	0.656	0.692	0.65	0.759	0.312	0.847	1.08	1.02	0.956	0.962
NCI-H2023	0.205	0.212	0.173	0.121	0.108	0.576	0.548	0.525	0.682	0.569	0.484	0.43	0.281	0.122	0.0803	0.727	0.873	0.712	0.83	0.968
NCI-H2085	0.372	0.472	0.352	0.332	0.396	0.49	0.477	0.52	0.571	0.591	0.887	0.778	0.689	0.513	0.359	0.378	0.41	0.423	0.4	0.403
NCI-H2087	1.02	0.867	0.714	0.463	0.336	0.171	0.257	0.221	0.281	0.219	0.719	0.474	0.631	0.197	0.243	0.171	0.191	0.217	0.154	0.238
NCI-H2126	0.563	0.461	0.434	0.425	0.368	0.523	0.592	0.523	0.629	0.574	0.975	0.895	0.878	0.514	0.44	0.771	0.889	0.903	0.943	1.02
NCI-H2170	0.305	0.311	0.289	0.22	0.224	0.84	0.931	0.883	0.893	0.942	0.535	0.533	0.601	0.389	0.255	0.637	0.606	0.512	0.714	0.835
